Assay results from patent US10562890B2, “Cancer therapeutics” (UNIVERSITY OF VIRGINIA PATENT FOUNDATION, priority 2014, dated 2020).

Assays:
[1] = target: CBFβ binding to the RUNX1 Runt domain (Homo sapiens (Human), UniProt Q13951); assay: FRET assay, inhibition of CBFβ binding to the RUNX1 Runt domain; conditions: inhibition of wild-type CBFβ binding to the RUNX1 Runt domain; NA = not active
Source text: Fluorescence Resonance Energy Transfer (FRET) Assay:
As described in U.S. Pat. No. 8,748,618 and published PCT application WO2010/132684, a FRET assay can be used to effectively monitor the inhibition of CBF binding to the Runt domain of RUNX proteins (as well as for CBFβ-SMMHC binding to the Runt domain of RUNX proteins). For the assay, the green fluorescent protein derivative Cerulean is fused to the N-terminus of the Runt domain and the green fluorescent protein derivative Venus to the N-terminus of CBFβ (Gorczynski, M. J., J. Grembecka, et al. (2007), “Allosteric inhibition of the protein-protein interaction between the leukemia-associated proteins Runx1 and CBFbeta.” Chem Biol 14(10): 1186-97), or to CBFβ-SMMHC (Illendula, A. et al. Chemical biology. A small-molecule inhibitor of the aberrant transcription factor CBFbeta-SMMHC delays leukemia in mice. Science 347, 779-784, doi:10.1126/science.aaa0314 (2015)). The ratio of the emission intensities at 525 nm and 474 nm, measured after excitation at 433 nm, was used as the readout in this assay. The dynamic range for the FRET assay was determined by adding a 30-fold excess of untagged CBFβ (or CBFβ-SMMHC) to the assay and the associated change in the FRET ratio was defined as 100% inhibition.

[2] = Sedative effects and tolerability in mice after IP administration; assay type: in vivo; conditions: intraperitoneal (IP) injection
Source text: “NA” indicates not active. […] Reasoning that this effect depended on the ability of the compound to cross the blood brain barrier (BBB), compounds Al-12-126 and Al-14-91 have appended morpholine ring substituents to the 5 position of the pyridine ring to increase the polarity of the compounds and thereby limit BBB penetration.

[3] = test system: inducible Runx1 (iRx) ES cells; assay: Inducible Runx1 (iRx) ES cell differentiation system, FACS; assay type: cell-based
Experimental: FIG. 3A is a schematic diagram representing the inducible Runx1 (iRx) ES cell differentiation system. ES cells were allowed to form embryoid bodies (EB) in IVD culture media and hemangioblast Flk1 positive cells were sorted and seeded into blast culture media. After 2 days, a second Flk1 sort was performed and Flk1 positive cells were cultured in hemogenic endothelium culture conditions. In the absence of doxycycline (−dox), Runx1 is absent and cells cannot progress from the HE1 stage of development. In the presence of doxycycline (+dox), Runx1 is expressed and differentiation progresses, resulting in the formation of CD41+ve/c-kit+ve floating progenitors.
FIG. 3C provides representative FACS histograms showing staining of the surface markers CD41 and c-kit in cells treated with the compounds and in the presence or absence of doxycycline, as indicated.
FIG. 3D provides representative FACS histograms showing staining of Annexin V and Propidium Iodide (PI) in cells treated with compounds Al-10-104 and Al-4-88 in the absence or presence of doxycycline, as indicated.

[4] = test system: OVCAR4 ovarian cancer cells; assay: CellTiter-Glo viability assay, OVCAR4; assay type: cell-based; conditions: Homo sapiens, OVCAR-4, OVCAR4, 72 hours
Experimental: OVCAR8 cells were grown in RPMI 1640 supplemented with 10% Fetal bovine serum and 1% antibiotics. OVCAR4 cells were grown in RPMI 1640 supplemented with 20% fetal bovine serum and 1% antibiotics. Cells growing at approximately 70% confluency were trypsinized and 2500 cells per well were re-plated in opaque bottomed 96-well plates.
24 hours after plating, chemical compounds diluted in DMSO were mixed with cell growth media and added to cells. Compounds mixed with media were made at 10× concentration. Cells treated with compounds were incubated for 72 hours in a humidified incubator at 37° C. supplemented with 5% CO2. Percentage of cells viable after 72 hours was determined by CellTitler-Glo according to the manufacturer's instructions. Data analysis was performed using GraphPad 5.0.
In the graph, the ordinate represents % inhibition and the abscissa represents the log value of the concentration of the compound.

CBFβ binding to the RUNX1 Runt domain, sequence (Q13951 1-141): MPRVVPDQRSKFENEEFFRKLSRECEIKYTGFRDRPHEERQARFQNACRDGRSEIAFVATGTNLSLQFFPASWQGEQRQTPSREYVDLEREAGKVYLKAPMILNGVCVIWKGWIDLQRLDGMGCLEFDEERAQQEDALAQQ

Q: For `COc1cccnc1-c1nc2cc(OC(F)(F)F)ccc2[nH]1` [Al-10-104], which IC50 [1] is on record?
A: The IC50 was 2.65 ± 0.18 µM.

Q: And the sedative effects [2]?
A: The sedative effects was “significant sedative effects that were lethal at high doses”.

Q: What about the “percentage of cells expressing c-kit and CD41” value ([3]; 10 μM, in the presence of doxycycline) of the same compound?
A: Its value is “reduced”.

Q: And the “apoptosis (Annexin V and PI staining)” value ([3]; adherent cells, absence or presence of doxycycline)?
A: Its value is “apoptosis is not increased”.

Q: And the IC50 [4]?
A: Its IC50 is 5.86 µM.
